Experimental data from the NIST ThermoML archive (doi:10.1016/j.jct.2015.08.014).

Test: xn = mol fraction of the nth substance listed
Settings: 313.15 K, 100 kPa, Liquid, Alternating current cell with electrodes

CCCC[N+]1(C)CCCC1.N#CN=C=[N-] [1-butyl-1-methylpyrrolidinium dicyanamide] + O=C1CCCO1
Settings | electrical conductivity [S/m]
Frequency=0.002 MHz, x1 = 1 | 2
Frequency=0.0025 MHz, x1 = 0.0463 | 1.79
Frequency=0.0025 MHz, x1 = 0.0987 | 2.72
Frequency=0.0025 MHz, x1 = 0.1449 | 3.13
Frequency=0.0025 MHz, x1 = 0.1859 | 3.36
Frequency=0.0025 MHz, x1 = 0.2493 | 3.36
Frequency=0.0025 MHz, x1 = 0.3029 | 3.315
Frequency=0.0025 MHz, x1 = 0.3845 | 3.16
Frequency=0.0025 MHz, x1 = 0.4985 | 2.87
Frequency=0.0025 MHz, x1 = 0.6954 | 2.425
Frequency=0.0025 MHz, x1 = 0.9013 | 2.09
Frequency=0.0025 MHz, x1 = 1 | 2
Frequency=0.003 MHz, x1 = 0.0463 | 1.79
Frequency=0.003 MHz, x1 = 0.0987 | 2.72
Frequency=0.003 MHz, x1 = 0.1449 | 3.13
Frequency=0.003 MHz, x1 = 0.1859 | 3.36
Frequency=0.003 MHz, x1 = 0.2493 | 3.36
Frequency=0.003 MHz, x1 = 0.3029 | 3.316
Frequency=0.003 MHz, x1 = 0.3845 | 3.16
Frequency=0.003 MHz, x1 = 0.4985 | 2.87
Frequency=0.003 MHz, x1 = 0.6954 | 2.425
Frequency=0.003 MHz, x1 = 0.9013 | 2.09
Frequency=0.003 MHz, x1 = 1 | 2
Frequency=0.00347222 MHz, x1 = 0.0463 | 1.79
Frequency=0.00347222 MHz, x1 = 0.0987 | 2.72
Frequency=0.00347222 MHz, x1 = 0.1449 | 3.13
Frequency=0.00347222 MHz, x1 = 0.1859 | 3.37
Frequency=0.00347222 MHz, x1 = 0.2493 | 3.36
Frequency=0.00347222 MHz, x1 = 0.3029 | 3.317
Frequency=0.00347222 MHz, x1 = 0.3845 | 3.16
Frequency=0.00347222 MHz, x1 = 0.4985 | 2.87
Frequency=0.00347222 MHz, x1 = 0.6954 | 2.425
Frequency=0.00347222 MHz, x1 = 0.9013 | 2.09
Frequency=0.00347222 MHz, x1 = 1 | 2
Frequency=0.004 MHz, x1 = 0.0463 | 1.79
Frequency=0.004 MHz, x1 = 0.0987 | 2.73
Frequency=0.004 MHz, x1 = 0.1449 | 3.13
Frequency=0.004 MHz, x1 = 0.1859 | 3.37
Frequency=0.004 MHz, x1 = 0.2493 | 3.36
Frequency=0.004 MHz, x1 = 0.3029 | 3.318
Frequency=0.004 MHz, x1 = 0.3845 | 3.16
Frequency=0.004 MHz, x1 = 0.4985 | 2.88
Frequency=0.004 MHz, x1 = 0.6954 | 2.426
Frequency=0.004 MHz, x1 = 0.9013 | 2.09
Frequency=0.004 MHz, x1 = 1 | 2
Frequency=0.00446429 MHz, x1 = 0.0463 | 1.79
Frequency=0.00446429 MHz, x1 = 0.0987 | 2.73
Frequency=0.00446429 MHz, x1 = 0.1449 | 3.13
Frequency=0.00446429 MHz, x1 = 0.1859 | 3.37
Frequency=0.00446429 MHz, x1 = 0.2493 | 3.36
Frequency=0.00446429 MHz, x1 = 0.3029 | 3.318
Frequency=0.00446429 MHz, x1 = 0.3845 | 3.16
Frequency=0.00446429 MHz, x1 = 0.4985 | 2.88
Frequency=0.00446429 MHz, x1 = 0.6954 | 2.426
Frequency=0.00446429 MHz, x1 = 0.9013 | 2.09
Frequency=0.00446429 MHz, x1 = 1 | 2
Frequency=0.005 MHz, x1 = 0.0463 | 1.79
Frequency=0.005 MHz, x1 = 0.0987 | 2.73
Frequency=0.005 MHz, x1 = 0.1449 | 3.13
Frequency=0.005 MHz, x1 = 0.1859 | 3.37
Frequency=0.005 MHz, x1 = 0.2493 | 3.36
Frequency=0.005 MHz, x1 = 0.3029 | 3.319
Frequency=0.005 MHz, x1 = 0.3845 | 3.16
Frequency=0.005 MHz, x1 = 0.4985 | 2.88
Frequency=0.005 MHz, x1 = 0.6954 | 2.426
Frequency=0.005 MHz, x1 = 0.9013 | 2.09
Frequency=0.005 MHz, x1 = 1 | 2
Frequency=0.005454 MHz, x1 = 0.0463 | 1.79
Frequency=0.005454 MHz, x1 = 0.0987 | 2.73
Frequency=0.005454 MHz, x1 = 0.1449 | 3.13
Frequency=0.005454 MHz, x1 = 0.1859 | 3.37
Frequency=0.005454 MHz, x1 = 0.2493 | 3.36
Frequency=0.005454 MHz, x1 = 0.3029 | 3.319
Frequency=0.005454 MHz, x1 = 0.3845 | 3.16
Frequency=0.005454 MHz, x1 = 0.4985 | 2.88
Frequency=0.005454 MHz, x1 = 0.6954 | 2.426
Frequency=0.005454 MHz, x1 = 0.9013 | 2.09
Frequency=0.005454 MHz, x1 = 1 | 2
Frequency=0.006 MHz, x1 = 0.0463 | 1.79
Frequency=0.006 MHz, x1 = 0.0987 | 2.73
Frequency=0.006 MHz, x1 = 0.1449 | 3.13
Frequency=0.006 MHz, x1 = 0.1859 | 3.37
Frequency=0.006 MHz, x1 = 0.2493 | 3.36
Frequency=0.006 MHz, x1 = 0.3029 | 3.32
Frequency=0.006 MHz, x1 = 0.3845 | 3.16
Frequency=0.006 MHz, x1 = 0.4985 | 2.88
Frequency=0.006 MHz, x1 = 0.6954 | 2.43
Frequency=0.006 MHz, x1 = 0.9013 | 2.09
Frequency=0.006 MHz, x1 = 1 | 2
Frequency=0.00652174 MHz, x1 = 0.0463 | 1.79
Frequency=0.00652174 MHz, x1 = 0.0987 | 2.73
Frequency=0.00652174 MHz, x1 = 0.1449 | 3.13
Frequency=0.00652174 MHz, x1 = 0.1859 | 3.37
Frequency=0.00652174 MHz, x1 = 0.2493 | 3.36
Frequency=0.00652174 MHz, x1 = 0.3029 | 3.32
Frequency=0.00652174 MHz, x1 = 0.3845 | 3.16
Frequency=0.00652174 MHz, x1 = 0.4985 | 2.88
Frequency=0.00652174 MHz, x1 = 0.6954 | 2.43
Frequency=0.00652174 MHz, x1 = 0.9013 | 2.09
Frequency=0.00652174 MHz, x1 = 1 | 2
Frequency=0.00694444 MHz, x1 = 0.0463 | 1.79
Frequency=0.00694444 MHz, x1 = 0.0987 | 2.73
Frequency=0.00694444 MHz, x1 = 0.1449 | 3.13
Frequency=0.00694444 MHz, x1 = 0.1859 | 3.37
Frequency=0.00694444 MHz, x1 = 0.2493 | 3.36
Frequency=0.00694444 MHz, x1 = 0.3029 | 3.32
Frequency=0.00694444 MHz, x1 = 0.3845 | 3.16
